{"source": "patent US8440708B2", "about": "“Triazole-substituted arylamides as P2X3 and P2X2/3 antagonists” (Roche Palo Alto LLC, priority 2007, dated 2013)", "key": {"rat P2X3 receptor": {"target": "T1, rat P2X3 receptor (Rattus norvegicus, UniProt P49654)", "T1 construct": "expressed in transfected cells; host or cells: CHO-K1", "T1 sequence (P49654 1-397)": "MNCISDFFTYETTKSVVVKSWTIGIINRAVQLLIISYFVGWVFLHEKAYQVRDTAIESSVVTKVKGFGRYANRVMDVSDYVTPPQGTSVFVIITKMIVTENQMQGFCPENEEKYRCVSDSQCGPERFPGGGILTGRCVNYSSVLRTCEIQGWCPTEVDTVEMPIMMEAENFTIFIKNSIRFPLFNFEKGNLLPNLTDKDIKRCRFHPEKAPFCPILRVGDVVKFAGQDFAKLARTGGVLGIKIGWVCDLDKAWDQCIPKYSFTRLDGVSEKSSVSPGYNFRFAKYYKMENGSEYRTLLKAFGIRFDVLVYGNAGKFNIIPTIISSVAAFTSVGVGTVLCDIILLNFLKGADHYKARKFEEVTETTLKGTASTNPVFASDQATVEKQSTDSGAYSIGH", "experiment": "P2X3/P2X2/3 FLIPR (Fluorometric Imaging Plate Reader) Assay, P2X3", "type": "cell-based", "details": "CHO-K1 cells transfected with rat P2X3; agonist α,β-meATP 1 μM; Table 1; read-out: P2X3 pKi (converted)", "in_short": "(§1)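 Compounds were tested as antagonists of agonist-evoked calcium entry in CHO-K1 cells transfected with rat P2X3 or human P2X2/3. After 20 min with compound at room temperature, cells received α,β-meATP at 1 μM (P2X3) or 5 μM (P2X2/3), and peak fluorescence was recorded over 2 min.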"}, "human P2X2/3 receptor": {"target": "T2, human P2X2/3 receptor (Homo sapiens, UniProt P56373+Q9UBL9)", "T2 construct": "expressed in transfected cells; host or cells: CHO-K1", "T2 sequence (Q9UBL9 1-471)": "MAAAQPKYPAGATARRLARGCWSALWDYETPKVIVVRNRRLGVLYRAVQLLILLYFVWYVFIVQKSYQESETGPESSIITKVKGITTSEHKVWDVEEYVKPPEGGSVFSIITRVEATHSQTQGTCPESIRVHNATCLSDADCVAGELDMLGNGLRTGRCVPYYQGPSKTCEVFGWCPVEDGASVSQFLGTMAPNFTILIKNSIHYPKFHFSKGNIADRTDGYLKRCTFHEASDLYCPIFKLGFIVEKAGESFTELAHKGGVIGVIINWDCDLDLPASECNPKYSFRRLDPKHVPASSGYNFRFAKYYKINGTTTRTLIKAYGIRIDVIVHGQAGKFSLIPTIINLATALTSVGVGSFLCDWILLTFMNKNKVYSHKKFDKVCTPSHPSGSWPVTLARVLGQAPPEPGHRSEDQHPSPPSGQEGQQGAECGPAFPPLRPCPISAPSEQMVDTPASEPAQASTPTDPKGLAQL", "T2 sequence (P56373 1-397)": "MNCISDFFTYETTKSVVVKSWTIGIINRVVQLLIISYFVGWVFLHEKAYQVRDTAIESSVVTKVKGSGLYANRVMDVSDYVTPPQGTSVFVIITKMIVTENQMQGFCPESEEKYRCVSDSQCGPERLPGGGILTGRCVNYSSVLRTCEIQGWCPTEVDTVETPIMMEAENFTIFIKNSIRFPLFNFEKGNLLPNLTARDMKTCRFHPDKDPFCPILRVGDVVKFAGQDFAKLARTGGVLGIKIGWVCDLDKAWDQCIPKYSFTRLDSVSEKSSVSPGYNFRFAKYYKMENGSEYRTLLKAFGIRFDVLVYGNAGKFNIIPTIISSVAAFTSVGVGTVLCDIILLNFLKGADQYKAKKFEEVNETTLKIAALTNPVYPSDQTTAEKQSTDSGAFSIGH", "experiment": "P2X3/P2X2/3 FLIPR (Fluorometric Imaging Plate Reader) Assay, P2X2/3", "type": "cell-based", "details": "CHO-K1 cells transfected with human P2X2/3; agonist α,β-meATP 5 μM; Table 1; read-out: P2X2/3 pKi (converted)", "in_short": "as §1"}}}
{"smiles": "CCc1ncnn1-c1cc(C(=O)NCc2cnc(C)cn2)cc(-c2ccc(Cl)cn2)c1", "note": "[Compound 124, 3-(5-Chloro-pyridin-2-yl)-5-(5-ethyl-[1,2,4]triazol-1-yl)-N-(5-methyl-pyrazin-2-ylmethyl)-benzamide]", "values": [{"measurement": "Ki", "setting": "rat P2X3 receptor", "result": 13.5, "unit": "nM"}, {"measurement": "Ki", "setting": "human P2X2/3 receptor", "result": 1150, "unit": "nM"}]}
{"smiles": "Cc1ccc(-c2cc(C(=O)NCc3cnc(C)cn3)cc(-n3ncnc3C3CC3)c2)nc1", "note": "[Compound 125, 3-(5-Cyclopropyl-[1,2,4]triazol-1-yl)-N-(5-methyl-pyrazin-2-ylmethyl)-5-(5-methyl-pyridin-2-yl)-benzamide]", "values": [{"measurement": "Ki", "setting": "rat P2X3 receptor", "result": 19.1, "unit": "nM"}, {"measurement": "Ki", "setting": "human P2X2/3 receptor", "result": 245, "unit": "nM"}]}
{"smiles": "CCc1ncnn1-c1cc(C(=O)NC2CC2)cc(-c2ccc(C)cn2)c1", "note": "[Compound 126, N-Cyclopropyl-3-(5-ethyl-[1,2,4]triazol-1-yl)-5-(5-methyl-pyridin-2-yl)-benzamide]", "values": [{"measurement": "Ki", "setting": "rat P2X3 receptor", "result": 29.5, "unit": "nM"}, {"measurement": "Ki", "setting": "human P2X2/3 receptor", "result": 3720, "unit": "nM"}]}
{"smiles": "CCc1ncnn1-c1cc(C(=O)N[C@@H](C)CO)cc(-c2ccc(C)cn2)c1", "note": "[Compound 127, 3-(5-Ethyl-[1,2,4]triazol-1-yl)-N-((S)-2-hydroxy-1-methyl-ethyl)-5-(5-methyl-pyridin-2-yl)-benzamide]", "values": [{"measurement": "Ki", "setting": "rat P2X3 receptor", "result": 24.5, "unit": "nM"}, {"measurement": "Ki", "setting": "human P2X2/3 receptor", "result": 6920, "unit": "nM"}]}
{"smiles": "CCc1ncnn1-c1cc(C(=O)NC(C)c2cnccn2)cc(-c2ccc(C)cn2)c1", "note": "(centres unmarked) [Compound 128, 3-(5-Ethyl-[1,2,4]triazol-1-yl)-5-(5-methyl-pyridin-2-yl)-N-(1-pyrazin-2-yl-ethyl)-benzamide]", "values": [{"measurement": "Ki", "setting": "rat P2X3 receptor", "result": 10.2, "unit": "nM"}, {"measurement": "Ki", "setting": "human P2X2/3 receptor", "result": 257, "unit": "nM"}]}
{"smiles": "CCc1ncnn1-c1cc(C(=O)NCc2cnc(C)cn2)cc(-c2ccc(C)cn2)c1", "note": "[Compound 129, 3-(5-Ethyl-[1,2,4]triazol-1-yl)-N-(5-methyl-pyrazin-2-ylmethyl)-5-(5-methyl-pyridin-2-yl)-benzamide]", "values": [{"measurement": "Ki", "setting": "rat P2X3 receptor", "result": 4.9, "unit": "nM"}, {"measurement": "Ki", "setting": "human P2X2/3 receptor", "result": 79.4, "unit": "nM"}]}
{"smiles": "Cc1ccc(-c2cc(C(=O)NC3CC3)cc(-n3ncnc3CC(C)C)c2)nc1", "note": "[Compound 130, N-Cyclopropyl-3-(5-isobutyl-[1,2,4]triazol-1-yl)-5-(5-methyl-pyridin-2-yl)-benzamide]", "values": [{"measurement": "Ki", "setting": "rat P2X3 receptor", "result": 4.27, "unit": "nM"}, {"measurement": "Ki", "setting": "human P2X2/3 receptor", "result": 182, "unit": "nM"}]}
{"smiles": "Cc1ccc(-c2cc(C(=O)N[C@@H](C)CO)cc(-n3ncnc3CC(C)C)c2)nc1", "note": "[Compound 131, N-((S)-2-Hydroxy-1-methyl-ethyl)-3-(5-isobutyl-[1,2,4]triazol-1-yl)-5-(5-methyl-pyridin-2-yl)-benzamide]", "values": [{"measurement": "Ki", "setting": "rat P2X3 receptor", "result": 3.72, "unit": "nM"}, {"measurement": "Ki", "setting": "human P2X2/3 receptor", "result": 158, "unit": "nM"}]}
{"smiles": "Cc1ccc(-c2cc(C(=O)NCc3cnc(C)cn3)cc(-n3ncnc3C(C)C)c2)nc1", "note": "[Compound 132, 3-(5-Isopropyl-[1,2,4]triazol-1-yl)-N-(5-methyl-pyrazin-2-ylmethyl)-5-(5-methyl-pyridin-2-yl)-benzamide]", "values": [{"measurement": "Ki", "setting": "rat P2X3 receptor", "result": 3.31, "unit": "nM"}, {"measurement": "Ki", "setting": "human P2X2/3 receptor", "result": 38.9, "unit": "nM"}]}
{"smiles": "COC(C)c1ncnn1-c1cc(C(=O)NCc2cnc(C)cn2)cc(-c2ccc(C)cn2)c1", "note": "(centres unmarked) [Compound 133, 3-[5-(1-Methoxy-ethyl)-[1,2,4]triazol-1-yl]-N-(5-methyl-pyrazin-2-ylmethyl)-5-(5-methyl-pyridin-2-yl)-benzamide]", "values": [{"measurement": "Ki", "setting": "rat P2X3 receptor", "result": 11, "unit": "nM"}, {"measurement": "Ki", "setting": "human P2X2/3 receptor", "result": 295, "unit": "nM"}]}
{"smiles": "COC(C)c1ncnn1-c1cc(C(=O)NCc2cnc(C)cn2)cc(-c2ccc(C)cc2)c1", "note": "(centres unmarked) [Compound 134, 5-[5-(1-Methoxy-ethyl)-[1,2,4]triazol-1-yl]-4′-methyl-biphenyl-3-carboxylic acid (5-methyl-pyrazin-2-ylmethyl)-amide]", "values": [{"measurement": "Ki", "setting": "rat P2X3 receptor", "result": 6.61, "unit": "nM"}, {"measurement": "Ki", "setting": "human P2X2/3 receptor", "result": 38, "unit": "nM"}]}
{"smiles": "Cc1ccc(-c2cc(C(=O)NCc3cnc(C)cn3)cc(-n3ncnc3C(C)C)c2)c(F)c1", "note": "[Compound 135, 2′-Fluoro-5-(5-isopropyl-[1,2,4]triazol-1-yl)-4′-methyl-biphenyl-3-carboxylic acid (5-methyl-pyrazin-2-ylmethyl)-amide]", "values": [{"measurement": "Ki", "setting": "rat P2X3 receptor", "result": 4.79, "unit": "nM"}, {"measurement": "Ki", "setting": "human P2X2/3 receptor", "result": 25.7, "unit": "nM"}]}
{"smiles": "Cc1ccc(-c2cc(C(=O)NCc3cnc(C)cn3)cc(-n3ncnc3C(C)C)c2)cc1", "note": "[Compound 136, 5-(5-Isopropyl-[1,2,4]triazol-1-yl)-4′-methyl-biphenyl-3-carboxylic acid (5-methyl-pyrazin-2-ylmethyl)-amide]", "values": [{"measurement": "Ki", "setting": "rat P2X3 receptor", "result": 5.37, "unit": "nM"}, {"measurement": "Ki", "setting": "human P2X2/3 receptor", "result": 20.9, "unit": "nM"}]}
